Earlier results on two compounds are cited in patent US20020192293A1, “Method for manufacture of extended release dosage form” (priority 2001, published 2002).

Where two headings read alike, the source gives them in different places.

For the data set the following is noted: in words.

Consider `O=C1NC(=O)C(c2ccccc2)(c2ccccc2)N1` [phenytoin, 5,5-diphenyl-2,4-imidazolidinedione], for which the solubility in water entry is recorded as “poor solubility in water”. In addition, the solubility in water result (listed as free-phenytoin) is on record as “practically insoluble in water”.
For the compound `O=C1N=C([O-])NC1(c1ccccc1)c1ccccc1.[Na+]` [sodium phenytoin, Sodium phenytoin], the solubility in water entry was “much more soluble”.
